Measurements: US8815872B2, “Macrocyclics pyrimidines as aurora kinase inhibitors” (Merck Patent GmbH, priority 2008, dated 2014)

Experiments:
Assay in all cases: Other kinases, single-concentration inhibition (Table 3)
Abl(h) = target: T1, Abl(h) (Homo sapiens, UniProt P00519); assay type: biochemical
T1 construct: purchased Caliper Life Sciences
Protocol: (§1) The Aurora and other kinase assays described here were performed on two Caliper Life Sciences systems, the LC3000 and the Desktop Profiler. These provide data on enzyme activity via measurement of the relative amounts of phosphorylated or unphosphorylated fluorescently labelled substrate peptide at the end of an enzymatic reaction. These different states of peptide are resolved by applying a potential difference across the sample. The presence of a charged phosphate group on the product (as opposed to the substrate) causes a different peptide mobility between the two peptides. This is visualized by excitation of a fluorescent label on the substrate and product peptides and represented as peaks within the analysis software.
(§2) The Desktop Profiler utilizes the same principal as the LC 3000 for calculating percentage conversion of a substrate to product. Caliper Life Sciences provided proprietary flash frozen pre-made 384 well plates containing selected kinases. Each column in the 384 well plate contained a particular selected kinase. A second plate, the ‘substrate plate’ contained a mix of fluorescently labeled peptide substrate and ATP. These were arranged in columns so that transfer for substrate plate to enzyme plate provided the correct enzyme with the correct substrate/ATP concentration.
(§3) Compounds were added to a thawed enzyme plate in the desired format, in single concentrations. Reactions were initiated by transfer of the ubstrate/ATP mix from the substrate plate. The enzyme plate was incubated for 90 mins at 25 °C. The reaction was stopped by addition of […] of Stop Buffer (100 mM HEPES pH 7.5, 0.015% Brij-35, 10 mM EDTA (Sigma, E7889)).
(§4) Plates were read in a manner identical to that of the LC3000, and the ratio between substrate and product peaks provided the activity of the enzyme in that well. This was best represented by a plate heat map which colors each well by percent inhibition as compared to positive and negative controls (no inhibitors and no ATP respectively).

CDK2/cyclinE(h) = target: T2, CDK2/cyclinE(h) (Homo sapiens, UniProt P24941); assay type: biochemical
T2 construct: purchased Caliper Life Sciences
Protocol: as §1, §2, §3, §4

FAK(h) = target: T3, FAK(h) (Homo sapiens, UniProt Q05397); assay type: biochemical
T3 construct: purchased Caliper Life Sciences
Protocol: as §1, §2, §3, §4

FGFR4(h) = target: T4, FGFR4(h) (Homo sapiens, UniProt P22455); assay type: biochemical
T4 construct: purchased Caliper Life Sciences
Protocol: as §1, §2, §3, §4

JAK2(h) = target: T5, JAK2(h) (Homo sapiens, UniProt O60674); assay type: biochemical
T5 construct: purchased Caliper Life Sciences
Protocol: as §1, §2, §3, §4

PDK1(h) = target: T6, PDK1(h) (Homo sapiens, UniProt O15530); assay type: biochemical
T6 construct: purchased Caliper Life Sciences
T6 sequence (O15530 1-556): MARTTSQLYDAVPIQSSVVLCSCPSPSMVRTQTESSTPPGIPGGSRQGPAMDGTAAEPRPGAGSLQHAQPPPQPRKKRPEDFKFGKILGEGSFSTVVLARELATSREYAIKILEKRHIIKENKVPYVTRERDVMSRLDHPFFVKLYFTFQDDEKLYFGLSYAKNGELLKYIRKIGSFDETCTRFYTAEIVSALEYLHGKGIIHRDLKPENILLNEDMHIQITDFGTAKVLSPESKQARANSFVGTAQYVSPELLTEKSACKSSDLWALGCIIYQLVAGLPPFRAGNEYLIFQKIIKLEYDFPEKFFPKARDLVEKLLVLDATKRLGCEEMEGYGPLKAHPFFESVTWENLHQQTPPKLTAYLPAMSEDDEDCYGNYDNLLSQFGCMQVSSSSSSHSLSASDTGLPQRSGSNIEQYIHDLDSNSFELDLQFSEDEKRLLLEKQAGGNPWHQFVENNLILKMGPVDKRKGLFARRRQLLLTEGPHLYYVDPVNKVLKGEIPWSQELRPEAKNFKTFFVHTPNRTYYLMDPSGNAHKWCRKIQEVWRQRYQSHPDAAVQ
Protocol: as §1, §2, §3, §4

PKCα(h) = target: T7, PKCα(h) (Homo sapiens, UniProt P17252); assay type: biochemical
T7 construct: purchased Caliper Life Sciences
Protocol: as §1, §2, §3, §4

Pyk2(h) = target: T8, Pyk2(h) (Homo sapiens, UniProt Q14289); assay type: biochemical
T8 construct: purchased Caliper Life Sciences
Protocol: as §1, §2, §3, §4

ROCK-II(h) = target: T9, ROCK-II(h) (Homo sapiens, UniProt O75116); assay type: biochemical
T9 construct: purchased Caliper Life Sciences
Protocol: as §1, §2, §3, §4

Ret(h) = target: T10, Ret(h) (Homo sapiens, UniProt P07949); assay type: biochemical
T10 construct: purchased Caliper Life Sciences
Protocol: as §1, §2, §3, §4

Rsk1(h) = target: T11, Rsk1(h) (Homo sapiens, UniProt Q15418); assay type: biochemical
T11 construct: purchased Caliper Life Sciences
Protocol: as §1, §2, §3, §4

TrkA(h) = target: T12, TrkA(h) (Homo sapiens, UniProt P04629); assay type: biochemical
T12 construct: purchased Caliper Life Sciences
Protocol: as §1, §2, §3, §4

TrkB(h) = target: T13, TrkB(h) (Homo sapiens, UniProt Q16620); assay type: biochemical
T13 construct: purchased Caliper Life Sciences
Protocol: as §1, §2, §3, §4

ZAP-70(h) = target: T14, ZAP-70(h) (Homo sapiens, UniProt P43403); assay type: biochemical
T14 construct: purchased Caliper Life Sciences
T14 sequence (P43403 1-619): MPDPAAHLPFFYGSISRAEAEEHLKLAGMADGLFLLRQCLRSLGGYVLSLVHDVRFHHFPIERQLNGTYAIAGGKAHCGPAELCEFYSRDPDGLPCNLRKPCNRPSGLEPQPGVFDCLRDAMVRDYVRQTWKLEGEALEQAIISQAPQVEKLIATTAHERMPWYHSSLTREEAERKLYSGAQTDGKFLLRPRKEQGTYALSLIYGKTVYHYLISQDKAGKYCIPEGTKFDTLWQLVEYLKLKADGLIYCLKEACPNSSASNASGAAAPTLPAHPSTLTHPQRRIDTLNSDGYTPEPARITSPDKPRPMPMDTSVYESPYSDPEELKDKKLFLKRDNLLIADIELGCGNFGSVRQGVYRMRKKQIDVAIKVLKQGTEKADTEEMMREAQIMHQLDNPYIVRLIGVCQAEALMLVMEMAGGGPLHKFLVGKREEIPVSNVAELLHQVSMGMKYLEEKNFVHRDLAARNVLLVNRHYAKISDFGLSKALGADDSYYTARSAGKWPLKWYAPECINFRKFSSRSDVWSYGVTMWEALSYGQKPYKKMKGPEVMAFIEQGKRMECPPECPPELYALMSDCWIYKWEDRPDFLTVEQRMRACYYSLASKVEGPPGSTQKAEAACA
Protocol: as §1, §2, §3, §4

ZIPK(h) = target: T15, ZIPK(h) (Homo sapiens, UniProt O43293); assay type: biochemical
T15 construct: purchased Caliper Life Sciences
Protocol: as §1, §2, §3, §4

cKit(D816V)(h) = target: T16, cKit(D816V)(h) (Homo sapiens, UniProt P10721, D816V); assay type: biochemical
T16 construct: purchased Caliper Life Sciences
Protocol: as §1, §2, §3, §4

AMPK(r) = assay type: biochemical, rat
Protocol: as §1, §2, §3, §4

T11 sequence (Q15418 whole entry): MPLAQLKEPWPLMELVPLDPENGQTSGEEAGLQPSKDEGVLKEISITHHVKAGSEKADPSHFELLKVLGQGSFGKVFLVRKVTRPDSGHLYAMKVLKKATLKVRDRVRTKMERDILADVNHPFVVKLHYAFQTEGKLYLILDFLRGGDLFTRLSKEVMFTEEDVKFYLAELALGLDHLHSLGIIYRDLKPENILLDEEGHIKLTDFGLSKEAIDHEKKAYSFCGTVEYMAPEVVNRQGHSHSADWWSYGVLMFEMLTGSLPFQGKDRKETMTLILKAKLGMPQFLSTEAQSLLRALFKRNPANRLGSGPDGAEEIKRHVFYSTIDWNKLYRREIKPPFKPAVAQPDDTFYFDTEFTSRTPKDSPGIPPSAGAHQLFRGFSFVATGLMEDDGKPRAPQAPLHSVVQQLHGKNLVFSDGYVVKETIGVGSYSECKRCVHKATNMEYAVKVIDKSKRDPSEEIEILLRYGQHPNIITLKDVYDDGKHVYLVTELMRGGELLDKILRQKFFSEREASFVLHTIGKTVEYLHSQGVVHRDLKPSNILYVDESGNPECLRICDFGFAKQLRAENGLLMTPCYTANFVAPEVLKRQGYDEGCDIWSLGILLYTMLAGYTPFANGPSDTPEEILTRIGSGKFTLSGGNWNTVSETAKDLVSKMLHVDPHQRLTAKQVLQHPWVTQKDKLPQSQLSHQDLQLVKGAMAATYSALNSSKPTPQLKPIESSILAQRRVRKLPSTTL
T9 sequence (O75116 whole entry): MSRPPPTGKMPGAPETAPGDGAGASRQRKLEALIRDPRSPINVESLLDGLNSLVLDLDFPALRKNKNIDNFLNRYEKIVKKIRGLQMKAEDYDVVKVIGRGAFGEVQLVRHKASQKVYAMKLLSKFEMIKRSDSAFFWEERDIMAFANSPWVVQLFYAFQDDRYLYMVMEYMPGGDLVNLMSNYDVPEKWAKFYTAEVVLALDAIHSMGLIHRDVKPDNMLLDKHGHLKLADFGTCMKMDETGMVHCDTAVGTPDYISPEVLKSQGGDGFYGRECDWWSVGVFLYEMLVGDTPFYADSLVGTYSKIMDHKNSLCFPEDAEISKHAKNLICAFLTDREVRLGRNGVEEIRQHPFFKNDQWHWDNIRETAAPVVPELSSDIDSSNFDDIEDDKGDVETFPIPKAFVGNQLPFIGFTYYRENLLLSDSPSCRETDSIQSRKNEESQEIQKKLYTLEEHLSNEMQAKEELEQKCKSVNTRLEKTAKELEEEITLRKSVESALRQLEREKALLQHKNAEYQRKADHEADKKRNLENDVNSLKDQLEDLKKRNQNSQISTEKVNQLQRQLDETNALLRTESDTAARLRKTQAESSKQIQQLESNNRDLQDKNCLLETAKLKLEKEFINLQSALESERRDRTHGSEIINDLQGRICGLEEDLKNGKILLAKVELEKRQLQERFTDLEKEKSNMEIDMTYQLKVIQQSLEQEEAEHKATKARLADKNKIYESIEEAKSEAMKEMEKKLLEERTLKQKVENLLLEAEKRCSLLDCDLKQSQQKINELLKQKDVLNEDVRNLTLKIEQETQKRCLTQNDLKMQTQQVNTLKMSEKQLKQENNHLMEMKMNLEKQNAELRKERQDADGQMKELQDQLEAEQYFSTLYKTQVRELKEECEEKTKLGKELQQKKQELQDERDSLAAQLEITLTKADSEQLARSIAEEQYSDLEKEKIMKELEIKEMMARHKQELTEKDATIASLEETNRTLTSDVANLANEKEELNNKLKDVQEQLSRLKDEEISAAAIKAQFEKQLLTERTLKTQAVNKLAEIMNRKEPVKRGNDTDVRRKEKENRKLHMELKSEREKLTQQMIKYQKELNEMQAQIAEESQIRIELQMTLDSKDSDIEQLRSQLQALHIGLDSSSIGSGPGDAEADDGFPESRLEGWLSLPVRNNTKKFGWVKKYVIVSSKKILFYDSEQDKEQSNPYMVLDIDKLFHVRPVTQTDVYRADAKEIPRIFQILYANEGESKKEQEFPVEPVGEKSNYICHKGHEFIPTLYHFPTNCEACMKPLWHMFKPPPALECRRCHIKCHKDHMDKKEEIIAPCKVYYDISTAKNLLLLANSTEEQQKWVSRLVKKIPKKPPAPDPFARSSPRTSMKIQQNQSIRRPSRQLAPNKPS
T3 sequence (Q05397 whole entry): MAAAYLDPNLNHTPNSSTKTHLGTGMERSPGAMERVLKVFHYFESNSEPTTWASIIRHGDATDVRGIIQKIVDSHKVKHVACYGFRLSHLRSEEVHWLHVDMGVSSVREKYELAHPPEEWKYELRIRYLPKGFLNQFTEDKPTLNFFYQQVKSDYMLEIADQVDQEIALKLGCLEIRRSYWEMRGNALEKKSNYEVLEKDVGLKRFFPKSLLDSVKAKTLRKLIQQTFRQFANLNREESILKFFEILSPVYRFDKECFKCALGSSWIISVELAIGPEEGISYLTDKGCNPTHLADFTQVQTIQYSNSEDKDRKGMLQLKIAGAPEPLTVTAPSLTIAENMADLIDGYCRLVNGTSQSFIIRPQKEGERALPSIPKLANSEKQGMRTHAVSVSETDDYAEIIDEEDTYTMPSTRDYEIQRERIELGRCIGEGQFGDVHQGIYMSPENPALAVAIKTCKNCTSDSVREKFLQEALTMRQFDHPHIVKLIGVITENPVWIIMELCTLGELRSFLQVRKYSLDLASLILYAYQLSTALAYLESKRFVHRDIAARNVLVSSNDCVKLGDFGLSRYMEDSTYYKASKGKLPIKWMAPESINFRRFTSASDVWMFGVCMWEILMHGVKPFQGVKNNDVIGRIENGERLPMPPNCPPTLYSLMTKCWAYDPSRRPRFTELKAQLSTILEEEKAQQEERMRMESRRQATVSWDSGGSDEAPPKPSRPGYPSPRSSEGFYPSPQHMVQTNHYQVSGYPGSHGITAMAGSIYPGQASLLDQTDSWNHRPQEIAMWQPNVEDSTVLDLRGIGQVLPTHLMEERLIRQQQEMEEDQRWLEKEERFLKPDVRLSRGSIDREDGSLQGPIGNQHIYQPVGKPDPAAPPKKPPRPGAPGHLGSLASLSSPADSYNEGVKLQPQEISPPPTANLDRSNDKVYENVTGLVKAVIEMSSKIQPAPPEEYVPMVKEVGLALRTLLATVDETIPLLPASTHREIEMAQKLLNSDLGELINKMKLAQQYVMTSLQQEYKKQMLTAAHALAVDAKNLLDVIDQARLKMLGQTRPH
T4 sequence (P22455 22-802): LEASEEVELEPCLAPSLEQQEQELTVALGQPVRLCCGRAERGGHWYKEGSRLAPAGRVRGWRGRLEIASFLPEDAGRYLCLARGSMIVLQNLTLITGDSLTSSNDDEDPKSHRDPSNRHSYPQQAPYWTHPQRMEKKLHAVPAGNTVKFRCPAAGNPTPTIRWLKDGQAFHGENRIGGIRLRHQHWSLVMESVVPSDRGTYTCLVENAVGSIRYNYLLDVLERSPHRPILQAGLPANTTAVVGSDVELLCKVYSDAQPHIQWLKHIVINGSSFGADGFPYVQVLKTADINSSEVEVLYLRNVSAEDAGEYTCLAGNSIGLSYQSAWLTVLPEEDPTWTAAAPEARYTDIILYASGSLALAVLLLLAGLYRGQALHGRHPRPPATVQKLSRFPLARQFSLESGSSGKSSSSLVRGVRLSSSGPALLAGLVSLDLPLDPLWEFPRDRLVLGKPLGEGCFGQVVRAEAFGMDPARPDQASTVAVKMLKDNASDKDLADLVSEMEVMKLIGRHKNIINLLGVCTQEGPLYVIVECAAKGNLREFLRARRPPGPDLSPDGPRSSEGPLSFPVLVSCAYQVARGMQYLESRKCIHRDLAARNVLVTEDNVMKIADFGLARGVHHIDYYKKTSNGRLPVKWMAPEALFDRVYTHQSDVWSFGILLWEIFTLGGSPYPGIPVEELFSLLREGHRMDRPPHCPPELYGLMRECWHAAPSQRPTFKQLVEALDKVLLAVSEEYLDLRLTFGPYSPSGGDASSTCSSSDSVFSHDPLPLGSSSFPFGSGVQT
T12 sequence (P04629 33-796): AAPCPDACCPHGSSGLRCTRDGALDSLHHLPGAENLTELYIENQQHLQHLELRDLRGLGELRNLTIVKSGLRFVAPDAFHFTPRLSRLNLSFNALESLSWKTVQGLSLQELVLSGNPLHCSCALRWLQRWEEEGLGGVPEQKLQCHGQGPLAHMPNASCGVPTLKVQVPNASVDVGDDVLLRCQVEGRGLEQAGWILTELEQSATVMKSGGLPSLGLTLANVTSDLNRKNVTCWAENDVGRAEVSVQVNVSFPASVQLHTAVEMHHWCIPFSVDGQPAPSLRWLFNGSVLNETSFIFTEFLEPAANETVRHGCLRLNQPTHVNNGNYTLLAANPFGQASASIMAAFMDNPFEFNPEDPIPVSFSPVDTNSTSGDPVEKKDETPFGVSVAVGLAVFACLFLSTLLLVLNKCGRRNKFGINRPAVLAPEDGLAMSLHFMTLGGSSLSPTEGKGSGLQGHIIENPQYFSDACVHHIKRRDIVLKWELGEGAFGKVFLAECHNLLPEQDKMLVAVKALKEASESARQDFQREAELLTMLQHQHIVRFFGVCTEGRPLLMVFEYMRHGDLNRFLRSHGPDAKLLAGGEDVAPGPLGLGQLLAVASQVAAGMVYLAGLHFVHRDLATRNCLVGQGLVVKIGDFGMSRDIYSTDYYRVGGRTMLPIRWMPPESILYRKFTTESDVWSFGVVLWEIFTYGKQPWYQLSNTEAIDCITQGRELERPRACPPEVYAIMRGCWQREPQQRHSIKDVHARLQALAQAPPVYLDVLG

Row | Structure (SMILES) | inhibition at 1 µM (Abl(h)) | % inhibition CDK2/cyclinE(h) (CDK2/cyclinE(h); 1 μM) | % inhibition FAK(h) (FAK(h); 1 μM) | % inhibition FGFR4(h) (FGFR4(h); 1 μM) | % inhibition JAK2(h) (JAK2(h); 1 μM) | % inhibition PDK1(h) (PDK1(h); 1 μM) | % inhibition PKCα(h) (PKCα(h); 1 μM) | % inhibition Pyk2(h) (Pyk2(h); 1 μM) | % inhibition ROCK-II(h) (ROCK-II(h); 1 μM) | % inhibition Ret(h) (Ret(h); 1 μM) | % inhibition Rsk1(h) (Rsk1(h); 1 μM) | % inhibition TrkA(h) (TrkA(h); 1 μM) | % inhibition TrkB(h) (TrkB(h); 1 μM) | % inhibition ZAP-70(h) (ZAP-70(h); 1 μM) | % inhibition ZIPK(h) (ZIPK(h); 1 μM) | % inhibition cKit(D816V)(h) (cKit(D816V)(h); 1 μM) | % inhibition AMPK(r) (AMPK(r); 1 μM) | also measured
1 | C=C[C@@H]1C[C@@H]2/C=C/COc3cccc(c3)Nc3ncc(F)c(n3)N[C@H]2[C@H]1C(N)=O (single isomer, unassigned) [Example 3] | 105% | 114% | 86% | 122% | 89% | 102% | 70% | 94% | 80% | 78% | 78% | 58% | 83% | 109% | 118% | 77% | 92% | 
2 | CC[C@@H]1C[C@@H]2CCCOc3cccc(c3)Nc3ncc(F)c(n3)N[C@H]2[C@H]1C(N)=O (single isomer, unassigned) [Example 5] | 105% | 109% | 91% | 94% | 94% | 92% | 84% | 122% | 105% | 52% | 71% | 60% | 85% | 122% | 110% | 103% | 58% | 
3 | CC[C@@H]1C[C@@H]2/C=C\COc3cccc(c3)Nc3ncc(F)c(n3)N[C@H]2[C@H]1C(N)=O (single isomer, unassigned) [Example 6] | 99% | 107% | 81% | 96% | 108% | 90% | 90% | 110% | 97% | 12% | 53% | 50% | 90% | 125% | 112% | 96% | 51% | 
4 | NC(=O)[C@H]1[C@H]2C[C@H]3[C@H]1Nc1nc(ncc1F)Nc1cccc(c1)CSS[C@@H]3C2 [Example 10] | 101% | 23% | 3% | 128% | 95% | 96% | 90% | 13% | 90% | 7% | 13% | 0% | 1% | 118% | 118% | 96% | 86% | 
5 | O=C(O)[C@H]1[C@H]2C[C@H]3[C@H]1Nc1nc(ncc1F)Nc1cccc(c1)OCCS[C@@H]3C2 [Example 21] |  |  |  |  |  |  |  |  |  |  |  |  |  |  |  |  |  | inhibition at 10 µM (Abl(h); 10 μM): 44%; % inhibition CDK2/cyclinE(h) (CDK2/cyclinE(h); 10 μM): 89%; % inhibition FAK(h) (FAK(h); 10 μM): 7%; % inhibition FGFR4(h) (FGFR4(h); 10 μM): 81%; % inhibition JAK2(h) (JAK2(h); 10 μM): 48%; % inhibition PDK1(h) (PDK1(h); 10 μM): 78%; % inhibition PKCα(h) (PKCα(h); 10 μM): 91%; % inhibition Pyk2(h) (Pyk2(h); 10 μM): 11%; % inhibition ROCK-II(h) (ROCK-II(h); 10 μM): 94%; % inhibition Ret(h) (Ret(h); 10 μM): 35%; % inhibition Rsk1(h) (Rsk1(h); 10 μM): 31%; % inhibition TrkA(h) (TrkA(h); 10 μM): 15%; % inhibition TrkB(h) (TrkB(h); 10 μM): 18%; % inhibition ZAP-70(h) (ZAP-70(h); 10 μM): 94%; % inhibition ZIPK(h) (ZIPK(h); 10 μM): 86%; % inhibition cKit(D816V)(h) (cKit(D816V)(h); 10 μM): 104%; % inhibition AMPK(r) (AMPK(r); 10 μM): 57%

Now from value to molecule, other results behind:

Row | inhibition at 1 µM (Abl(h)) | % inhibition CDK2/cyclinE(h) (CDK2/cyclinE(h); 1 μM) | % inhibition FAK(h) (FAK(h); 1 μM) | % inhibition FGFR4(h) (FGFR4(h); 1 μM) | % inhibition JAK2(h) (JAK2(h); 1 μM) | % inhibition PDK1(h) (PDK1(h); 1 μM) | % inhibition PKCα(h) (PKCα(h); 1 μM) | % inhibition Pyk2(h) (Pyk2(h); 1 μM) | % inhibition ROCK-II(h) (ROCK-II(h); 1 μM) | % inhibition Ret(h) (Ret(h); 1 μM) | % inhibition Rsk1(h) (Rsk1(h); 1 μM) | % inhibition TrkA(h) (TrkA(h); 1 μM) | % inhibition TrkB(h) (TrkB(h); 1 μM) | % inhibition ZAP-70(h) (ZAP-70(h); 1 μM) | % inhibition ZIPK(h) (ZIPK(h); 1 μM) | % inhibition cKit(D816V)(h) (cKit(D816V)(h); 1 μM) | Structure (SMILES) | % inhibition AMPK(r) (AMPK(r); 1 μM) | also measured
6 | 92% | 92% | 77% | 100% | 121% | 98% | 94% | 93% | 102% | 56% | 79% | 8% | 32% | 124% | 84% | 102% | NC(=O)[C@H]1[C@H]2C[C@H]3[C@H]1Nc1nc(ncc1F)Nc1cccc(c1)C(=O)CS[C@@H]3C2 [Example 11] | 97% | 
7 | 79% | 69% | 11% | 102% | 46% | 80% | 107% | 15% | 99% | 11% | 24% | 1% | 5% | 122% | 93% | 112% | NC(=O)[C@H]1[C@H]2C[C@H]3[C@H]1Nc1nc(ncc1F)Nc1cccc(c1)OCCS[C@@H]3C2 [Example 20] | 81% | 
8 | -4% | 133% | 30% | 87% | 111% | 112% | 100% | 27% | 92% | 4% | 23% | −1% | 14% |  | 95% | 112% | CN1CCN(c2ccc3cc2OCCS[C@@H]2C[C@@H]4C[C@H]2[C@@H](Nc2nc(ncc2F)N3)[C@H]4C(N)=O)CC1 [Example 22] | 65% | 
